Laboratory results as given in patent US12139481B2, “Compositions comprising macrocycle derivatives incorporating bridged macrocycles and methods of producing and using same” (Southwestern Oklahoma State University, priority 2015, dated 2024).

Key:
[1] = tested on: Cryptococcus neoformans ATCC 90113; assay: Antimicrobial microdilution assay against Cryptococcus neoformans (modified CLSI/NCCLS, optical density); format: cell-based; settings: for X more potent than Amphotericin B: C. neoformans, ratio of molar IC50 to Amphotericin B; for C. neoformans IC50 / IC50: in vitro, C. neoformans ATCC 90113; for IC50: read-out: C. neoformans IC50 (mol/L)
In short: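 Fungicidal endpoint taken by subculturing 5 μL from each clear well onto agar, MFC being the lowest concentration with no regrowth. Duplicate wells of serially diluted compound (20% DMSO/saline) in RPMI pH 6.0, read at 630 nm pre- and post-incubation, under modified CLSI methods. IC50 means 50% growth inhibition against controls.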

C. glabrata ATCC 90030 = assay: Antifungal broth dilution assay against C. glabrata (modified CLSI); format: cell-based, Candida glabrata; settings: for C. glabrata IC50 / IC50: in vitro; for IC50: converted with molecular weight; for X more potent than Amphotericin B: molar IC50 ratio versus amphotericin B
Procedure: (§1) General Experimental Procedures. All organisms were obtained from the American Type Culture Collection (Manassas, VA) and include the fungi Candida albicans ATCC 90028, C. glabrata ATCC 90030, C. krusei ATCC 6258, and Cryptococcus neoformans ATCC 90113, and the bacteria Staphylococcus aureus ATCC 29213 and methicillin-resistant S. aureus ATCC 33591 (MRS). All organisms were tested using modified versions of the CLSI (formerly NCCLS) methods. For all organisms, optical density was used to monitor growth (NCCLS, Reference Method for Broth Dilution Antifungal Susceptibility Testing of Yeasts; Approved Standard M27-A2. National Committee on Clinical Laboratory Standards, 2002 22 (15); and NCCLS, Methods for Dilution Antimicrobial Susceptibility Tests for Bacteria that Grow Aerobically; Approved Standard, Seventh Edition M7-A7. National Committee on Clinical Laboratory Standards, 2006. 26(2)).
(§2) Samples (dissolved in DMSO) were serially-diluted in 20% DMSO/saline and transferred (10 μL) in duplicate to 96 well flat bottom microplates. Inocula were prepared by correcting the OD630 of microbe suspensions in incubation broth [RPMI 1640/0.2% dextrose/0.03% glutamine/MOPS @ pH 6.0 (Cellgro) for Candida spp., Sabouraud Dextrose for C. neoformans, and cation-adjusted Mueller-Hinton (Difco) @ pH 7.3 for Staphylococcus spp. to afford an assay volume of […] and final target inocula of: Candida spp. and C. neoformans: 1.5×10^3, and Staphylococcus spp.: 5.0×10^5 CFU/ml. Final sample test concentrations were 1/100th the DMSO stock concentration. […] All organisms were read at either 530 nm using the Biotek Powerwave XS plate reader (Bio-Tek Instruments, Vermont) prior to and after incubation: Candida spp. at 35° C. for 46-50 h, Staphylococcus spp. at 35° C. for 16-20 h, and C. neoformans at 35° C. for 70-74 h. IC50s (concentrations that afford 50% inhibition relative to controls) were calculated using XLfit 4.2 software (IDBS, Alameda, CA) using fit model 201. The MIC is defined as the lowest test concentration that allows no detectable growth. Minimum fungicidal or bactericidal concentrations were determined by removing 5 μl from each clear (or blue) well, transferring to fresh media, and incubating as previously mentioned. The MFC/MBC is defined as the lowest test concentration that kills the organism (allows no growth).
(§3) Primary Analysis. Samples were tested in duplicate at one test concentration (50 μg/mL), and percent inhibitions were calculated relative to blank and growth controls. Samples showing 50% inhibition in at least one test organism were selected for dose response (Secondary) studies.
(§4) Secondary Analysis. Extracts from the Primary Assay, and first-run pure compounds and column fractions were tested in duplicate at 3 test concentrations (5-fold dilutions). Samples dissolved to 20 mg/mL in DMSO were tested at 200, 40, and 8 μg/mL. Samples dissolved to 2 mg/mL in DMSO were tested at 20, 4, and 0.8 μg/mL.

[2] = tested on: Staphylococcus aureus ATCC 29213; assay: Antibacterial broth dilution assay against S. aureus (modified CLSI); format: cell-based
Procedure: as §1, §2, §3, §4

[3] = tested on: L. donovani promastigotes; assay: Antileishmanial Alamar Blue assay on promastigotes; format: cell-based, Leishmania donovani; settings: for X more potent than Pentamidine: L. donovani, ratio of molar IC50 to Pentamidine; for L. donovani IC50 / IC50: promastigotes, 48 hours, Alamar Blue; for IC50: read-out: L. donavani IC50
Procedure: Methods: The compounds were screened in vitro against the promastigote forms of the leishmania parasites employing the Alamar Blue assay as discussed below.
Antileishmanial activity of the compounds was tested in vitro against a culture of L. donovani promastigotes, grown in RPMI 1640 medium supplemented with 10% fetal calf serum (FCS, Gibco Chem. Co., Grand Island, NY) at 26° C. A 3-day-old culture was diluted to 5×10^5 promastigotes/mL. Drug dilutions (50-3.1 μg/mL) were prepared directly in cell suspension in 96-well plates. Plates were incubated at 26° C. for 48 hours, and growth of leishmania promastigotes was determined by Alamar Blue assay. Standard fluorescence was measured on a FLUOstar® Galaxy plate reader (BMG Lab Technologies, Ortenberg, Germany) at an excitation wavelength of 544 nm and emission wavelength of 590 nm. Pentamidine and amphotericin B were used as the standard antileishmanial agents. Percent growth was calculated and plotted versus test concentration for computing the IC50 values.

Compound	X more potent than Amphotericin B [1]	C. neoformans IC50 [1] [µg/mL]	IC50 [1] [µM]	C. glabrata IC50 (C. glabrata ATCC 90030) [µg/mL]	IC50 (C. glabrata ATCC 90030) [µM]	X more potent than Amphotericin B (C. glabrata ATCC 90030)	S. aureus IC50 ([2]; in vitro) [µg/mL]	IC50 ([2]; in vitro, converted with molecular weight) [µM]	X more potent than ciprofloxacen ([2]; molar IC50 ratio versus ciprofloxacen)	X more potent than Pentamidine [3]	L. donovani IC50 [3] [µg/mL]	IC50 [3] [µM]
CC(=O)[O-].F[P-](F)(F)(F)(F)F.O.[Co+2].c1ccc(CN2CCCNCCN(Cc3ccccc3)CCCNCC2)cc1 [BME07, [Co(Bn2Cyclam)(OAc)PF6•H2O]	0.02	6.980	10.6	0.597	0.903	1.57	–	–	–	–	–	–
O.[Cl][Fe-2]([Cl])([Cl])[Cl].[Fe+2].c1ccc(CN2CCCN3CCCN(CCCN(Cc4ccccc4)CC3)CC2)cc1 [BME09, [Fe(Bn2PBCyclam)][FeCl4]•H2O]	0.15	1.070	1.55	–	–	–	5.130	7.41	0.04	0.26	14.10	20.4
CC(=O)[O-].CC(=O)[O-].CC(=O)[O-].CN1CCCN2CCN(CCCN(Cc3cc(CN4CCCN5CCN(C)CCCN(CC5)CC4)cc(CN4CCCN5CCN(C)CCCN(CC5)CC4)c3)CC2)CC1.F[P-](F)(F)(F)(F)F.F[P-](F)(F)(F)(F)F.F[P-](F)(F)(F)(F)F.[Cu+2].[Cu+2].[Cu+2] [BNS25, [Cu3(tris-CB-Cyclams)(OAc)3][PF6]3]	0.20	1.950	1.19	5.420	3.31	0.43	–	–	–	–	–	–
C1CNCCN2CCCNCCN(C1)CCC2 [DJD27, H2PBCyclam]	0.03	1.830	7.61	3.380	14.1	0.10	–	–	–	–	–	–
CC(=O)[O-].Clc1cc(CN2CCCN3CCN(CCCNCC2)CC3)cc(Cl)n1.F[P-](F)(F)(F)(F)F.[Co+2] [KLC002A]	–	–	–	16.070	24.8	0.06	–	–	–	–	–	–
CN1CCN2CCN(CC1)CCN(Cc1ccccn1)CC2 [KRW32, Me1Pic1-CB-cyclen]	0.01	5.490	18.1	14.360	47.3	0.03	–	–	–	–	–	–
CC(=O)[O-].CC(=O)[O-].CN1CCCN2CCN(CCCN(Cc3ccc(CN4CCCN5CCN(C)CCCN(CC5)CC4)cc3)CC2)CC1.F[P-](F)(F)(F)(F)F.F[P-](F)(F)(F)(F)F.[Zn+2].[Zn+2] [KS34, [Zn2(p-CB-cyclams)(OAc)2](PF6)2]	0.41	0.650	–	15.760	–	0.10	–	–	–	0.25	23.49	–
CC(=O)[O-].CC(=O)[O-].F[P-](F)(F)(F)(F)F.F[P-](F)(F)(F)(F)F.O.O.[Co+2].[Co+2].c1cc(CN2CCNCCN3CCN(CC3)CC2)cc(CN2CCNCCN3CCN(CC3)CC2)c1 [OB36, [Co2(m-SB-Cyclens)(OAc)2][PF6]2•2H2O]	0.32	≤ 0.800	0.754	3.720	3.51	0.40	–	–	–	–	–	–
c1ccc(CN2CCN3CCN(CC2)CCN(Cc2ccccn2)CC3)nc1 [PW95]	–	–	–	14.850	39	0.04	–	–	–	–	–	–
C1CNCCN2CCCNCCN(C1)CCC2.CC(=O)[O-].F[P-](F)(F)(F)(F)F.F[P-](F)(F)(F)(F)F.O.[Co+2].[NH4+] [SLK38B, [Co(H2PBCyclam)(OAc)]PF6•NH4PF6•H2O]	0.03	6.230	9.1	0.375	0.548	2.59	–	–	–	–	–	–
[Co2(m-SB-cyclam-cyclen)(OAc)2][PF6]4•H2O [CMB032]	0.41	≤ 0.800	0.588	1.310	0.963	1.47	–	–	–	–	–	–
[Co2(p-SB-cyclam-cyclen)(OAc)2][PF6]2 [CMB016A]	0.16	1.570	1.49	1.100	1.04	1.36	–	–	–	0.17	33.81	32.1
[Co3(tris-CB-Cyclams)(OAc)1.51][PF6]4.5 [BNS24]	0.52	≤ 0.800	0.456	1.490	0.85	1.67	–	–	–	–	–	–
[Cu2(m-cyclam-homocyclen)(OAc)1.5][PF6]2.5 [AW051A]	0.23	1.172	1.02	7.253	6.32	0.22	–	–	–	–	–	–
[Cu2(p-CB-cyclam-cyclen)(OAc)2][PF6]2 [CMB029]	0.32	≤ 0.800	0.734	4.190	3.84	0.37	–	–	–	–	–	–
[Ni2(p-CB-Homocyclens)(OAc)2][PF6]2 [TJH378A]	0.03	7.540	6.98	5.150	4.77	0.30	–	–	–	–	–	–
[Ni2(p-CB-cyclam-cyclen)(OAc)2][PF6]2 [CMB028]	0.19	1.330	1.23	4.490	4.16	0.34	–	–	–	0.19	30.69	28.4
[m-(BMBCyclams)]Br2 [DJD05]	0.05	3.250	4.56	4.213	5.91	0.24	–	–	–	0.21	18.18	25.5
[p-(DCP-BMBCyclams)]Br4 [SLK26]	–	–	–	5.705	4.78	0.30	–	–	–	0.43	14.76	12.4
